Earlier results on 7 compounds are cited in patent US20060052322A1, “Combination treatment of cancer with elicitor of gene product expression and gene-product targeting agent” (INTROGEN THERAPEUTICS, INC., priority 2004, published 2006).

The conditions of series [1]: share of dose.

Counter-ions that a name gives are not always drawn. Like-named read-outs stand apart in the source and are kept apart here. Starred links: 1 amine or outer side, 2 acyl side, 3 side chain; linkers in the order of their positions; H or OH if unused. Positions of bridges follow the written chain, without caps; N, C: chain ends. Non-standard residues stand in square brackets, D forms with d. Residues, ends and D or L forms follow the SMILES beside them. Chains are numbered I, II in the order given. Actinocin(9to1) = Cc1c2oc3c(C)ccc(C(=O)[*:1])c3nc-2c(C(=O)[*:2])c(N)c1=O; NMeV = CN[C@H](C(=O)O)C(C)C; Sar = CNCC(=O)O Bounds are passed on as bounds.

As for `COc1cccc2c1C(=O)c1c(O)c3c(c(O)c1C2=O)C[C@@](O)(C(C)=O)C[C@@H]3O[C@H]1C[C@H](N)[C@H](O)[C@H](C)O1` [Daunorubicin, 5,12-Naphthacenedione, (8S-cis)-8-acetyl-10-[(3-amino-2,3,6-trideoxy-a-L-lyxo-hexanopyranosyl)oxy]-7,8,9,10-tetrahydro-6,8,11-trihydroxy-10-methoxy-, hydrochloride], in series [1], the “secreted/excreted into the bile” value is reported as roughly 40%. Regarding `O=NN(CCCl)C(=O)NC1CCCCC1` [Lomustine, 1-(2-chloro-ethyl)-3-cyclohexyl-1 nitrosourea], the solubility reads like this: (absolute alcohol) 70 mg per ml; (water) less than 0.05 mg per ml. As to `Cc1c2oc3c(C)ccc(C(=O)N[C@@H]4C(=O)N[C@H](C(C)C)C(=O)N5CCC[C@H]5C(=O)N(C)CC(=O)N(C)[C@@H](C(C)C)C(=O)O[C@@H]4C)c3nc-2c(C(=O)N[C@@H]2C(=O)N[C@H](C(C)C)C(=O)N3CCC[C@H]3C(=O)N(C)CC(=O)N(C)[C@@H](C(C)C)C(=O)O[C@@H]2C)c(N)c1=O` [Actinomycin D] (I: T[dV]P[Sar][NMeV] / II: T[dV]P[Sar][NMeV]; ester I:1-I:C, II:1-II:C; linker I:N-II:N via Actinocin(9to1)), in series [1], the “excreted/recovered in the urine” value is reported as 10% and the “secreted/excreted into the bile” value was “Half”.

Consider `CC[C@]1(O)C[C@@H]2CN(CCc3c([nH]c4ccccc34)[C@@](C(=O)OC)(c3cc4c(cc3OC)N(C)[C@H]3[C@@](O)(C(=O)OC)[C@H](OC(C)=O)[C@]5(CC)C=CCN6CC[C@]43[C@@H]65)C2)C1` [Vinblastine], for which, in series [1], the “excreted/recovered in the urine” value is “Approximately 15%”.

Consider `CC[C@@]1(O)C(=O)OCc2c1cc1n(c2=O)Cc2cc3ccccc3nc2-1` [Camptothecin], for which, for the setting “2-8° C., dry, airtight, light-resistant environment”, the storage stability entry is recorded as “at least two years”. As to `CO[C@@]12[C@H](COC(N)=O)C3=C(C(=O)C(C)=C(N)C3=O)N1C[C@@H]1N[C@@H]12` [Mitomycin], the “excreted/recovered in the urine” value in series [1] is “Approximately 10%”. `COc1cccc2c1C(=O)c1c(O)c3c(c(O)c1C2=O)C[C@@](O)(C(=O)CO)C[C@@H]3O[C@H]1C[C@H](N)[C@H](O)[C@H](C)O1` [Doxorubicin, 5,12-Naphthacenedione, (8s-cis)-10-[(3-amino-2,3,6-trideoxy-a-L-lyxo-hexopyranosyl)oxy]-7,8,9,10-tetrahydro-6,8,11-trihydroxy-8-(hydroxyacetyl)-1-methoxy-hydrochloride]: the “excreted/recovered in the urine” value in series [1] is recorded as “a few percent”.
